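Values below derive from 48-hour exposures of cells grown in 96-well plates, with endpoints linearly interpolated between the two concentrations bracketing the appropriate inhibition level. The concentration for 50% growth inhibition is given as GI50. TGI: total growth inhibition.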
Tests used:
Experiment in all cases: DTP human tumour cell line panel, 48 h
OVCAR-4 ovarian = system: OVCAR-4 ovarian
KM12 colon = system: KM12 colon
TK-10 renal = system: TK-10 renal
COLO 205 colon = system: COLO 205 colon
LOX IMVI melanoma = system: LOX IMVI melanoma
OVCAR-8 ovarian = system: OVCAR-8 ovarian
MDA-MB-231 breast = system: MDA-MB-231 breast
IGROV1 ovarian = system: IGROV1 ovarian
SF-268 CNS = system: SF-268 CNS
NCI/ADR-RES ovarian = system: NCI/ADR-RES ovarian

| Compound | GI50 (OVCAR-4 ovarian) [µM] | TGI (OVCAR-4 ovarian) [µM] | GI50 (KM12 colon) [µM] | TGI (KM12 colon) [µM] | GI50 (TK-10 renal) [µM] | TGI (TK-10 renal) [µM] | GI50 (COLO 205 colon) [µM] | TGI (COLO 205 colon) [µM] | GI50 (LOX IMVI melanoma) [µM] | TGI (LOX IMVI melanoma) [µM] | GI50 (OVCAR-8 ovarian) [µM] | TGI (OVCAR-8 ovarian) [µM] | GI50 (MDA-MB-231 breast) [µM] | TGI (MDA-MB-231 breast) [µM] | GI50 (IGROV1 ovarian) [µM] | TGI (IGROV1 ovarian) [µM] | GI50 (SF-268 CNS) [µM] | TGI (SF-268 CNS) [µM] | GI50 (NCI/ADR-RES ovarian) [µM] | TGI (NCI/ADR-RES ovarian) [µM] |
| --- | --- | --- | --- | --- | --- | --- | --- | --- | --- | --- | --- | --- | --- | --- | --- | --- | --- | --- | --- | --- |
| N#Cc1c(N)nc(N2CCSCC2)c(C#N)c1-c1ccc(O)cc1 | 18 | 67.6 | 20.2 | 92.2 | 30.4 | > 100 | 19.8 | 47.1 | 15.2 | 30.3 | 33.6 | > 100 | 12.4 | 27.5 | 32.6 | > 100 | 18.2 | 56.5 | 20.6 | 67.1 |
| Cc1cc(NNC(=O)c2ccccc2O)nc(Nc2nc3ccccc3o2)n1 | 0.79 | 7.06 | 1.01 | 35.2 | 2.73 | 23.4 | 2.75 | 15.4 | 0.607 | 4.41 | 1.9 | 12.8 | 0.71 | 16.2 | 1.3 | 12.2 | 1.13 | 40.8 | 1.3 | 7 |
| O=C(Nc1cccc(Cl)c1)c1cc(N=Nc2ccc([N+](=O)[O-])cc2Cl)ccc1O | 2.67 | > 100 | 1.57 | 4.61 | 2.24 | 6.92 | 3.19 | 11 | 3.02 | 10.8 | 3.04 | 18 | 2.03 | 5.27 | 3.12 | 19 | 2.22 | 11.4 | 2.27 | 5.93 |
| Cc1cn2c(/C=C3/C(=O)Nc4ccc(F)cc43)c(C)nc2s1 | 12.6 | > 50 | 2.34 | > 50 | 22.2 | > 50 | 1.91 | > 50 | 10.3 | > 50 | 10.4 | > 50 | 12.1 | > 50 | 2.14 | 25 | 12.6 | > 50 | 1.7 | 7.26 |
| CCCCCCN(C)Cc1ccc(OCCOc2ccc(CN(C)CCCCCC)cc2)cc1 | 1.17 | 2.74 | 1.47 | 2.84 | 1.29 | 2.6 | 0.659 | 2.19 | 1.35 | 2.87 | 1.41 | 3.16 | 1.22 | 2.84 | 1.33 | 3.13 | 2.59 | 11.8 | 1.38 | 3.16 |
| COc1cc2ncn(-c3cc(OCc4ccccc4C(F)(F)F)c(C(C)=O)s3)c2cc1OC | > 25 | > 25 | > 25 | > 25 | > 25 | > 25 | > 25 | > 25 | > 25 | > 25 | > 25 | > 25 | 24.2 | > 25 | > 25 | > 25 | > 25 | > 25 | > 25 | > 25 |
| CC(O)CN1c2ccccc2Sc2ccc(Cl)cc21 (stereo not given) |  | > 10 |  | > 10 |  | > 10 |  | > 10 |  | > 10 |  | > 10 |  | > 10 |  | > 10 |  | > 10 |  | > 10 |
| Cc1nnc(-c2ccc(C)c(-c3ccc(C(=O)NCc4ccc(Cl)cc4)cc3)c2)o1 | 3.41 | 16.4 | 11 | > 25 | > 15.7 | > 25 | 9.08 | > 23.7 | > 25 | > 25 | > 25 | > 25 | 10.4 | > 25 | > 16.3 | > 25 | 12.9 | > 25 | 9.04 | > 25 |
| CCOC(=O)c1cc(-c2ccc(OC)c(OC)c2)[nH]c1N/N=C/c1c(Cl)cccc1Cl | 4.46 | > 62.7 | 0.636 | 9.98 | 2.5 | 11.4 | 2.9 | > 100 | 3.6 | 20.5 | 3.69 | > 100 | 2.9 | 8.84 | 2.45 | 30.4 | 2.29 | 39.9 | 1.15 | 4.53 |
